≈ marks a conversion by molar mass, not a printed value.
Legend:
[1] = Metabolic stability in rat liver microsomes with NADPH; type: in vitro ADME; details: rat, rat liver microsomes
Description: (§1) The compound of the present invention was incubated with rat liver microsomes and NADPH, and then the rate of elimination of the compound was measured, thereby determining the intrinsic clearance value (CLint value) of the compound.

[2] = test system: Rat liver microsomes; test: as above; type: in vitro ADME; details: Rat liver microsomes
Description: as §1

[3] = test system: α-SMA (alpha-smooth muscle actin); test: α-SMA expression in ONGHEPA1 cells by immunofluorescent staining; type: cell-based, rat; details: TGF-β plus compound 50 μM
Description: In addition, in order to examine whether the above-described effect would be attributable to the effect against epithelial-mesenchymal transition (EMT) (hereinafter referred to as “EMT”), the expression of α-SMA (alpha-smooth muscle actin), which is a representative marker of EMT, in the cells of each test group, was examined by immunofluorescent staining and nuclear staining (DAPI staining).

[4] = test system: Vimentin; test: Vimentin expression in A549 cells by real-time PCR; type: cell-based, human; details: A549, TGF-β plus compound
Description: (§2) In addition, in order to examine whether the effect as described above would be attributable to the effect against EMT, the expression patterns of Snail and Vimentin, which are representative markers of EMT, in the cells of each test group, were analyzed by real-time PCR.

[5] = test system: C57BL/6 mice; test: Bleomycin-induced pulmonary fibrosis animal model; type: in vivo; details: for Mean Collagen % (histopathology collagen morphometry, left lung): Sirius red
Description: 5-week-old male C57BL/6 mice (weighed 18.2 to 20.5 g) (KOATECH, Korea) were used as experimental animals and divided into several groups, each consisting of 5 animals.
The experimental animals were housed in a housing box having a size of 369 L×156 W×132H (mm) (EU, USA, UK GL compliance) made of a polysulfone material in a SPF (Specific Pathogen Free) and BSL (Bio Safety Level) 2 grade facility. The number of animals in each housing box was 2 to 3 during the period of quarantine and acclimatization and was also 2 to 3 during the experimental period, and the housing conditions were set to a temperature of 22±2° C., a relative humidity of 50.0±15.0%, a ventilation cycle of 10 to 20 times/hr, a light-dark cycle (a photoperiod) of 12 hr/day (07:00 to 19:00), and an illumination intensity of 150 to 300 Lux.
Pulmonary fibrosis was induced by injecting a bleomycin solution directly into the lungs via the trachea according to the intratracheal instillation (IT) method of Kremer, Laxer and Berkman et al. Specifically, C57BL/6J mice were anesthetized through inhalation with 70% N2O and 30% O2 gas and 1.5% isoflurane, and the skin of the anterior neck thereof was excised and the organs under the muscle thereof were exposed and then carefully excised using ophthalmic surgical scissors. 50 μL of a solution of bleomycin in distilled water was injected directly into the lungs all at once via the excised organ by use of a 1 mL syringe fitted with a 19-gauge injection needle having a blunt tip. Immediately after the injection, the excised skin of the anterior neck was sutured and the mice were allowed to recover from the anesthetic, and then housed in a general housing cage. The administration of bleomycin was performed using a visual instillobot, and bleomycin-HCl 40 μg/50 μL was administered once and a pulmonary fibrosis induction period of 12 days was set.
The compound of the present invention was used after dissolution in 30% HPCD aqueous solution (Formulation Example 5), and the dose for each individual was calculated based on the recent body weight thereof. 12 Days after the administration of bleomycin, the compound of the present invention was administered once a day (5 times a week) for 2 weeks. As a control, pirfenidone which is a therapeutic agent for idiopathic pulmonary fibrosis was administered in the same manner.
On 15 days after administration of the compound, the mice were sacrificed, and then the right lung of each mouse was dissected and the weight thereof was measured. […] In particular, it is noted that the inhibitory effect of the compound in the group administered at 10 mpk was the highest compared to that in the group administered at 50 or 100 mpk and was also higher than that in the group administered with pirfenidone 100 mpk.
The amounts of hydroxyproline (HP) and collagen in the dissected right lung were measured using a known method.
Histopathology collagen morphometry of the dissected left lung tissue was performed using a known method (calculating the area of collagen in an optical image obtained by Sirius red staining of the lung tissue sample).
The pathological conditions of the left lung tissue dissected using a known method were examined by H&E and Sirius Red staining. […] In particular, it is noted that the inhibitory effect of the compound in the group administered at 10 mpk was the highest compared to that in the groups administered at other concentrations.
In order to examine the effect of each treatment in this Experiment on the liver, the liver of each of the sacrificed mice was dissected, and the pathological conditions of the liver tissue were examined by H&E staining.

[6] = biological target: CYP3A4 (Homo sapiens, UniProt P08684); test: CYP450 inhibition, CYP3A4
[7] = physchem
Description: The compound of the present invention was added to phosphate buffer (pH 7.4) at a concentration of 1 mg/ml and stirred. After 16 hours, the sample was filtered through a filter, and the supernatant was analyzed by HPLC-UV, thereby determining the content of compound dissolved.

[8] = test system: A549 cell line; test: TGF-β-induced myofibroblast differentiation of A549 cell line; type: cell-based, human; details: A549, TGF-β 5 ng/ml, compound 25 or 50 μM, 24 or 48 hours
Description: The A549 cell line, which is a lung adenocarcinoma cell line used as a lung EMT-related study model, was seeded into medium, cultured for 24 hours, and then treated with TGF-β (5 ng/ml). Alternatively, the A549 cell line was co-treated with TGF-β and the compound of the present invention (25 or 50 μM in DMSO) and cultured for 24 or 48 hours. Next, the cells were examined with a phase contrast microscope (200×).

[9] = test system: Snail; test: Snail expression in A549 cells by real-time PCR; type: cell-based, human; details: A549, TGF-β plus compound
Description: as §2

Sequence of CYP3A4 (P08684 whole entry): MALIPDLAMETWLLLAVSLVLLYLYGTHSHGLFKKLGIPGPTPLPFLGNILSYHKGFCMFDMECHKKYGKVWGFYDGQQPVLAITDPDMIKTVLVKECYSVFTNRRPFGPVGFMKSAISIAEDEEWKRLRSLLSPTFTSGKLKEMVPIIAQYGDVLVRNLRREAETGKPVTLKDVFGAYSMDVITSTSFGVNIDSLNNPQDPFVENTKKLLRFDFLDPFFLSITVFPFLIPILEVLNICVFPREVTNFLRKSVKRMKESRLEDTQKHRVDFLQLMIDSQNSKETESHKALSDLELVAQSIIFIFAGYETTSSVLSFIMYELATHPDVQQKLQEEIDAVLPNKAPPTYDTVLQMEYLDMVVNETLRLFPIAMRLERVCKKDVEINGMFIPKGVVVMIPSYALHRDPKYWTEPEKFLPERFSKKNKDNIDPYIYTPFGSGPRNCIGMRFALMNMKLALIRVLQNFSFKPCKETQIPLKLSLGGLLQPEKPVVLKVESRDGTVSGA

COc1ccc(-c2cc(=O)c3c(O)c(OC)c(OCCN4CCNC(=O)C4)cc3o2)cc1OC [Compound 1, 4-(2-((2-(3,4-dimethoxyphenyl)-5-hydroxy-6-methoxy-4-oxo-4H-chromen-7-yl)oxy)ethyl)piperazin-2-one]
microsomal CLint ([1]; read-out: CL int): 19.4 µL/min/mg
half-life ([1]; read-out: t½): 71.4 min
Clearance value [2]: Moderate
metabolic stability (in words) ([2]; NADPH): metabolically stable such that it could be comparable with atenolol
expression of α-SMA [3]: inhibited
expression of Vimentin [4]: significantly inhibited
Protection Collagen % ([5]; 10 mpk PO): 59%
Mean Collagen % (histopathology collagen morphometry, left lung) ([5]; 10 mpk PO): 2.8%
inhibitory effect on right lung weight, comparison of dose groups ([5]; 10 mpk compared to 50 or 100 mpk and pirfenidone 100 mpk): the highest
inhibitory effect on lung fibrosis symptoms, comparison of dose groups ([5]; 10 mpk compared to other concentrations): the highest
Protection Collagen % ([5]; 50 mpk PO): 66%
Mean Collagen % (histopathology collagen morphometry, left lung) ([5]; 50 mpk PO): 2.4%
Protection Collagen % ([5]; 100 mpk PO): 59%
Mean Collagen % (histopathology collagen morphometry, left lung) ([5]; 100 mpk PO): 2.8%
amount of collagen in right lung ([5]; bleomycin mice, 10-100 mpk PO): significantly inhibited this increase
amount of hydroxyproline (HP) in right lung ([5]; bleomycin mice, 10-100 mpk PO): significantly inhibited this increase
fibrosis symptoms of left lung tissue, H&E and Sirius Red staining ([5]; bleomycin mice, 10-100 mpk PO): significantly inhibited such fibrosis symptoms
increase of collagen in left lung tissue, morphometry (in words) ([5]; bleomycin mice, 10-100 mpk PO): significantly inhibited this increase
increase in the right lung weight ([5]; bleomycin mice, 10-100 mpk PO in 30% HPCD, once a day 5 times a week for 2 weeks): significantly inhibited
pathological condition of liver tissue, H&E staining ([5]; bleomycin mice, 50 mpk): showed hepatotoxic symptoms
pathological condition of liver tissue, H&E staining ([5]; bleomycin mice, 100 mpk): showed hepatotoxic symptoms
inhibitory effect on collagen, comparison of dose groups ([5]; group administered at 100 mpk): highest
inhibitory effect on hydroxyproline, comparison of dose groups ([5]; group administered at 100 mpk): highest
pathological condition of liver tissue, H&E staining ([5]; mouse, in vivo, 10 mg/kg): showed the same condition as that of normal liver tissue
IC50 ([6]; 3A4-midazolam IC50, substrate midazolam): > 50 µM
IC50 ([6]; 3A4-testosterone IC50, substrate testosterone): 49.7 µM
solubility in the buffer (in words) ([7]; pH 7.4): lower than that of caffeine, but higher than that of diethyl stilbesterol
solubility at 16 h ([7]; pH 7.4, aqueous buffer, thermodynamic from solid): 9.59 µg/mL (≈ 20.4 µM)
myofibroblast differentiation [8]: inhibited
expression of Snail [9]: significantly inhibited
